Patent US11331299B2, “Medicinal use of serrulatane diterpenes” (The University of Sydney, priority 2016, dated 2022)
pEC50, pIC50: −log10 of the molar value. Read-outs that look alike come from different tables or passages of the source.

How the values were obtained:
FBXL10 (h) = target: T1, FBXL10 (h) (Homo sapiens, UniProt Q8NHM5); assay: Epigenetic enzyme assay, Demethylases (KDMs); format: biochemical; conditions: 10 μM; read-out: % Inhibition of Control Values
T1 sequence (Q8NHM5 1-1336): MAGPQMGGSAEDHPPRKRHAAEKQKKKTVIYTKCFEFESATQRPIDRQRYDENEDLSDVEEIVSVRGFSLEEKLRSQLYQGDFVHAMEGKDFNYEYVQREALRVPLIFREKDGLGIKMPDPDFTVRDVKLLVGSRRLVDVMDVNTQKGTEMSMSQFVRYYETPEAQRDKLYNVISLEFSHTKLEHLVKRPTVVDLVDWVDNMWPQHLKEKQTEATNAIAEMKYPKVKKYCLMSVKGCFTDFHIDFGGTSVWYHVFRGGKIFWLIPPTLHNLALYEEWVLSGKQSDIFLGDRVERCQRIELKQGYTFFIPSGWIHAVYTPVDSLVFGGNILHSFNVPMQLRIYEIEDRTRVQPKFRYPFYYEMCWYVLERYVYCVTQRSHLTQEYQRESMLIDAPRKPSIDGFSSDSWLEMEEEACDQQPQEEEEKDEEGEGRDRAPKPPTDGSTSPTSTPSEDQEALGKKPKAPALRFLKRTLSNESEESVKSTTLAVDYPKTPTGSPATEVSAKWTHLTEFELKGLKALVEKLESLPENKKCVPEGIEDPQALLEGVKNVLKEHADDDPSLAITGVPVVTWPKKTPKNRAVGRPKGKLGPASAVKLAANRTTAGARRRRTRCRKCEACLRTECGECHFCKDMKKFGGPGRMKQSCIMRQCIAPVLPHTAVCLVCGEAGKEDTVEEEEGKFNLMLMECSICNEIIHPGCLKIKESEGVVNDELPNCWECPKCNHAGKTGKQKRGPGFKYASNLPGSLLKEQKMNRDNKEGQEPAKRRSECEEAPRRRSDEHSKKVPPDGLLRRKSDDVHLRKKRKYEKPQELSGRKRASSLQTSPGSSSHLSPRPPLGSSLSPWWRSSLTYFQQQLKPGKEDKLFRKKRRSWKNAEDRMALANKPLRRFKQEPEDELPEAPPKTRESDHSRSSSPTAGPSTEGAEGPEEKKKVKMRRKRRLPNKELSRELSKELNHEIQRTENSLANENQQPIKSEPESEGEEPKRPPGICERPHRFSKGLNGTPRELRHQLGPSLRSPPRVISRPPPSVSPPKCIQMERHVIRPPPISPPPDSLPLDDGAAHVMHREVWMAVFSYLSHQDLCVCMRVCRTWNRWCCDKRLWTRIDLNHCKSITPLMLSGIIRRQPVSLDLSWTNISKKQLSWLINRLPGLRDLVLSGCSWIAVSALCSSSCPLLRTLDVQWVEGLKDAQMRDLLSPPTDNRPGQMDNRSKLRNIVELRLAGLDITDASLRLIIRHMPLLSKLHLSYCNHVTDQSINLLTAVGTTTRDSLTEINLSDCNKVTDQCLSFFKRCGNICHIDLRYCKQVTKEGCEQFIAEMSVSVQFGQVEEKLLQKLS

PRMT8 (h) = PRMT8 (h) (Homo sapiens, UniProt Q9NR22); assay: Epigenetic enzyme assay, Methyltransferases (MTs); format: biochemical; conditions: read-out: % Inhibition of Control Values
KG-1 leukemia cell line = assay: OncoPanel cell proliferation assay (10-day); format: cell-based; conditions: Homo sapiens; for pEC50: read-out: Cell Count EC50; for pIC50: read-out: Cell Count IC50
EHMT1 (h) = target: T2, EHMT1 (h) (Homo sapiens, UniProt Q9H9B1); assay: Epigenetic enzyme assay, Methyltransferases (MTs); format: biochemical; conditions: for inhibition at 10 µM: read-out: % Inhibition of Control Values
T2 sequence (Q9H9B1 1-1298): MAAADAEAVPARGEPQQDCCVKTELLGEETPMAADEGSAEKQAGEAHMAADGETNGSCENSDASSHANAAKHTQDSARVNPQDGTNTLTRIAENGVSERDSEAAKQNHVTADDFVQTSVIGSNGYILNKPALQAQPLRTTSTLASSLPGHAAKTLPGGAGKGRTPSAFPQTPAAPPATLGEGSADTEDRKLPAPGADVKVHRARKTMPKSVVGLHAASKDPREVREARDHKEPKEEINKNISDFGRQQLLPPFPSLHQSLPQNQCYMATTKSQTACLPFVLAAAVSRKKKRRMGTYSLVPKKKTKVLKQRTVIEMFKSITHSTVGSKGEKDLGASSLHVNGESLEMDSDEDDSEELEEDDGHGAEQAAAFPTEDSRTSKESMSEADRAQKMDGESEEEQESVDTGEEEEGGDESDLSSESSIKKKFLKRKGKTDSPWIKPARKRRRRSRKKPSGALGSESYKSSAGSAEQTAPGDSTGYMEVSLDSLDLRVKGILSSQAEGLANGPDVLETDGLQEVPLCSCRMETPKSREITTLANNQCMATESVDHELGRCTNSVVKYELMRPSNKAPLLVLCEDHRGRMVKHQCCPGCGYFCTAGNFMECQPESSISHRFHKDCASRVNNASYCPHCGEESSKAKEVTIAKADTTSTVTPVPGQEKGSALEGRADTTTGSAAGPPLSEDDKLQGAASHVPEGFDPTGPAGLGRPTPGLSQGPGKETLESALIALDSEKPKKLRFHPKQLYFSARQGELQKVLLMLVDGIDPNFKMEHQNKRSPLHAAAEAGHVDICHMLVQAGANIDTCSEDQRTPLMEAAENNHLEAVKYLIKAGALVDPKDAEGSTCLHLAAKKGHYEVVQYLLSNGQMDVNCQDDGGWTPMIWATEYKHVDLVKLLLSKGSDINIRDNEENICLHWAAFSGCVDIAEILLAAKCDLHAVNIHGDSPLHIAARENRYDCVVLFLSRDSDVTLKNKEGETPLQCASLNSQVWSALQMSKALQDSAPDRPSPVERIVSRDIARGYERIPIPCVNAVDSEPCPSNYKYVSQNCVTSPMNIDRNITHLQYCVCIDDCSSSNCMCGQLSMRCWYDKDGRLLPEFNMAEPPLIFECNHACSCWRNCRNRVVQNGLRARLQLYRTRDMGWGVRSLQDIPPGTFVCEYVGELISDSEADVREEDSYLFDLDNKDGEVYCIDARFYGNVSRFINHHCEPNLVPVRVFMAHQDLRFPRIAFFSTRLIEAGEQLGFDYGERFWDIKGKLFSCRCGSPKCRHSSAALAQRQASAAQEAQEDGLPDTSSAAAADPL

[1] = target: PKBbeta/AKT2(h) (substrate histone H3 full length) (Homo sapiens, UniProt P31751); assay: Epigenetic enzyme assay, Kinases; format: biochemical; conditions: read-out: % Inhibition of Control Values
HDAC9 (h) = HDAC9 (h) (Homo sapiens, UniProt Q9UKV0); assay: Epigenetic enzyme assay, Histone deacetylase (HDACs); format: biochemical; conditions: read-out: % Inhibition of Control Values
[2] = test system: Hs695T melanoma cell line; assay: OncoPanel cell proliferation assay (10-day); format: cell-based; conditions: Homo sapiens, Hs 695T; for pEC50: read-out: Cell Count EC50; for pIC50: read-out: Cell Count IC50
[3] = KG-1, Leukemia, read-out: Cell Count GI50
[4] = Skin (Melanoma), read-out: Cell Count GI50

Sequence of PRMT8 (h) (Q9NR22 whole entry): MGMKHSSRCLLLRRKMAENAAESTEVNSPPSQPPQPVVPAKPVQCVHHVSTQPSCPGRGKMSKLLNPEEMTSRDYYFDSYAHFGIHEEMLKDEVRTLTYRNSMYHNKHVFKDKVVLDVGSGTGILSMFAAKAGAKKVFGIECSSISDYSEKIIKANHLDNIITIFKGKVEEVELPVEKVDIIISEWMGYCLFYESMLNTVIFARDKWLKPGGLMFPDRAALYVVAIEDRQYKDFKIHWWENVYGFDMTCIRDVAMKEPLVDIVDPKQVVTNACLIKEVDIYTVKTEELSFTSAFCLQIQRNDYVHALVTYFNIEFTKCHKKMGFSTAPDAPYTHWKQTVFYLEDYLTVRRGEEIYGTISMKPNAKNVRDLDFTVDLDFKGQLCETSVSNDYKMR
Sequence of PKBbeta/AKT2(h) (substrate histone H3 full length) (P31751 whole entry): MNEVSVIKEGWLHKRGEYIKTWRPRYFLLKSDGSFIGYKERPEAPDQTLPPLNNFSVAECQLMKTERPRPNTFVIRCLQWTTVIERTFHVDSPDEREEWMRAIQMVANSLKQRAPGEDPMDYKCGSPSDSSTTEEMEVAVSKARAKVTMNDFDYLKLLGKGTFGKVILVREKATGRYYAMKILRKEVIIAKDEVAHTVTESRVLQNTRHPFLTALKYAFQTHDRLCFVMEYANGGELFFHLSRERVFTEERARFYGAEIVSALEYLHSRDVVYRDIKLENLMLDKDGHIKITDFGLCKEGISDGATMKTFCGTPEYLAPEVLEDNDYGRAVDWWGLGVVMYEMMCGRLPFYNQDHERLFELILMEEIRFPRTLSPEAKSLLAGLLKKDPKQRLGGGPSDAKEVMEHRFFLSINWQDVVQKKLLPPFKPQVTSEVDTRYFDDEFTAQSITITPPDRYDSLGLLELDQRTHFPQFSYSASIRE
Sequence of HDAC9 (h) (Q9UKV0 whole entry): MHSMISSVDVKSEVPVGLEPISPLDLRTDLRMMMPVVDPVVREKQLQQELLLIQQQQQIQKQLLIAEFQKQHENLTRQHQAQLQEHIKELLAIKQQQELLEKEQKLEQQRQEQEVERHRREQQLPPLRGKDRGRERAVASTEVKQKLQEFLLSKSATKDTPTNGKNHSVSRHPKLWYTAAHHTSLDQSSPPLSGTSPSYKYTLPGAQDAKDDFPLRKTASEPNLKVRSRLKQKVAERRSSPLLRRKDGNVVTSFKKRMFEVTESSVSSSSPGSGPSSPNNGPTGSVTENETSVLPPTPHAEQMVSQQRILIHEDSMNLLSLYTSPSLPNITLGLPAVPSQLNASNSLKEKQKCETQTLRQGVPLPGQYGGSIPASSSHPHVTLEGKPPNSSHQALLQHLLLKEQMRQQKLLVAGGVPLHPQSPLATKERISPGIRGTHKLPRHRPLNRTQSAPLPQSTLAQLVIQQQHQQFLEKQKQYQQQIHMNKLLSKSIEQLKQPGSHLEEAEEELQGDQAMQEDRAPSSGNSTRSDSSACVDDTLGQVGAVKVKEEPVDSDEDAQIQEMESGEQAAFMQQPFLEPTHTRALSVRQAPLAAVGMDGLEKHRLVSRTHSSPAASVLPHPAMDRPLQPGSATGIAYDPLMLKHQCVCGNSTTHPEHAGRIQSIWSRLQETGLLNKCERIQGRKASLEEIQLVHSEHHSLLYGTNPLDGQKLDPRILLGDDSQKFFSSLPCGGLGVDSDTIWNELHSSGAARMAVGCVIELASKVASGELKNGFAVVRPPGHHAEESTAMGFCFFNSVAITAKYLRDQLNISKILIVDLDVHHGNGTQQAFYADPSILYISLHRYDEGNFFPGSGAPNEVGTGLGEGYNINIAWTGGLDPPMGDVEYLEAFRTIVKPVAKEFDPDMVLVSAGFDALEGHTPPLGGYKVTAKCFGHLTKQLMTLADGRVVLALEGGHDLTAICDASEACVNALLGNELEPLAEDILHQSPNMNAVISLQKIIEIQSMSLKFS

SMILES	inhibition at 10 µM (FBXL10 (h)) [%]	inhibition at 10 µM (PRMT8 (h)) [%]	pEC50 (KG-1 leukemia cell line; KG-1, Leukemia)	GI50 (KG-1 leukemia cell line; [3]) [µM]	pIC50 (KG-1 leukemia cell line; KG-1, Leukemia)	GI50 (KG-1 leukemia cell line; read-out: GI50) [µM]	inhibition at 10 µM (EHMT1 (h)) [%]	inhibition at 10 µM [1] [%]	inhibition at 10 µM (HDAC9 (h)) [%]	GI50 ([2]; calculated on a weight-weight basis, read-out: GI50) [µg/mL]	pEC50 ([2]; Skin (Melanoma))	GI50 [2, 4] [µM]	pIC50 ([2]; Skin (Melanoma))	pIC50 (EHMT1 (h); read-out: Reference IC50)
CC(C)=CCC[C@H](CO)[C@@H]1CC[C@@H](C)c2c1cc(C)c(O)c2O [Compound 1, 7,8,18-trihydroxyserrulat-14-ene]	37	5	6.92	0.11	6.92	0.11	13	13	-50	0.37	5.93	1.16	5.90	–
CC(C)=CCC[C@@H]1C(O)Oc2c(C)cc(O)c3c2[C@H]1CC[C@H]3C (stereo partly drawn) [Compound 2, 5,18-epoxyserrulat-14-en-8,18-diol]	7	24	4.95	11.9	4.92	–	9	11	-1	–	5.04	8.99	5.02	–
Nc1ncnc2c1ncn2[C@@H]1O[C@H](CSCC[C@H](N)C(=O)O)[C@@H](O)[C@H]1O [SAH]	–	–	–	–	–	–	–	–	–	–	–	–	–	6.74
CC(C)=CCC[C@@H]1COc2c(C)cc(O)c3c2[C@H]1CC[C@H]3C [Compound 3, 5,18-epoxy-8-hydroxyserrulat-14-ene]	22	-26	–	–	–	–	63	12	-9	–	–	–	–	–
CC(C)=CCC[C@H](C)[C@@H]1CC[C@@H](C)c2c1cc(C)c(O)c2O [Compound 4, 7,8-dihydroxyserrulat-14-ene]	–	–	4.88	13.1	4.88	–	–	–	–	–	5.30	4.02	5.29	–
